Reference: patent publication US7598028B2, “Compositions and methods for detecting and treating prostate disorders” (The Regents of the University of Michigan, priority 2006, dated 2009)

Test system: ERK ½
Assay: Western blot, ERK phosphorylation in LNCaP cells
Format: cell-based, human
Procedure: Western Blot Analysis. Cells were lysed, proteins resolved by electrophoresis, and electroblotting was carried out as described previously (see, e.g.; Chaib H, et al., 2001 Cancer Res. 61, 2390-2394; incorporated herein by reference in its entirety). Proteins were detected using antibodies against phospho-ERK½ (Cell Signaling #9101), total ERK½ (Cell Signaling #9102), CXCR4 (Abcam #ab2074), Elk-1 (Cell Signaling #9182), Phospho Elk-1 (Cell Signaling #9181), or beta-actin (Santa Cruz #sc-1615), in conjunction with an ECL detection system.
Western Blot and Protein Analysis. Cells were lysed, proteins resolved by electrophoresis, and electroblotting was carried out as described previously except that 20 ug protein was electrophoresed per gel lane for N15C6 cells and 100 ug protein for LNCaP cells (see, e.g., Begley L, et al., Aging Cell. 2005 December; 4(6):291-8; Begley L A, et al., J Biol. Chem. 2007 Sep. 14; 282(37):26767-74; each herein incorporated by reference in their entireties). Proteins were detected using antibodies against phospho-ERK½ (Cell Signaling #9101), total ERK½ (Cell Signaling, #9102), phospho-p65, (Rockland #100-401-264), total p65 (Rockland #100-4165), STAT3 (9139), phospho-STAT3 (9138), beta-actin (Santa Cruz #sc-1615), or tubulin (Upstate, #DM1A) in conjunction with an ECL detection system. Secondary antibodies included goat anti-rabbit (Cell Signaling, #7074) and goat anti-mouse (Santa Cruz, #SC-2005), and both were used at a 1:5000 concentration. Immunoblots shown are representative of triplicate experiments. Densitometric quantitation of immunoblot films was accomplished by scanning the original films and converting the .tiff files to grayscale. Images were inverted, and mean band intensities were measured using ImageJ (www, followed by, .nih.gov). The mean intensity of adjacent background was also measured for each band and subtracted from band intensity.

## CXCL5: recombinant human CXCL5 (R&D Systems, 254-X), CXC-type chemokine
10 pM or 100 pM CXCL5
  ERK ½ phosphorylation: rapidly and transiently phosphorylated
Nanomolar levels of CXCL5
  activation of ERK ½: not evident
